Measurements published in the supplement of paper PMC12317010.
Structures can show the parent of a compound that is named as a salt.

Assay: collision cross section in nitrogen (drift tube, single-field); higher = larger gas-phase ion size
[1] = ion type: [M+H], ion source: APCI, ion mode: Positive
[2] = ion type: [M+H], ion source: ESI, ion mode: Positive
[3] = ion type: [M+Na], ion source: ESI, ion mode: Positive
[4] = ion type: [M-H], ion source: ESI, ion mode: Negative
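Also: chemical standards at 10 µM analysed by drift tube IMS-QTOF MS in about 3.95 torr nitrogen, mean of duplicate injections differing ≤1%, mass error below 10 ppm.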

CCS(=O)(=O)CCSP(=O)(OC)OC [Demeton-S-methyl sulfone]
collision cross section in nitrogen [1]: 144.5 Å² | collision cross section in nitrogen [2]: 145 Å² | collision cross section in nitrogen [3]: 155.1 Å²

Nc1ccc(N)c(Cl)c1 [2-Chloro-1,4-diaminobenzene sulfate (1:1)]
collision cross section in nitrogen [2]: 131.4 Å²

CCC(=C(c1ccc(O)cc1)c1ccc(OCCN(C)C)cc1)c1ccccc1 [4-Hydroxytamoxifen]
collision cross section in nitrogen [1]: 201 Å² | collision cross section in nitrogen [2]: 200.9 Å² | collision cross section in nitrogen [3]: 196.9 Å² | collision cross section in nitrogen [4]: 214.6 Å²

CCCCOCN(C(=O)CCl)c1c(CC)cccc1CC [Butachlor]
collision cross section in nitrogen [3]: 184.4 Å²

NCCOCCOCCN [2,2'-[Ethane-1,2-diylbis(oxy)]diethanamine]
collision cross section in nitrogen [3]: 132.4 Å²

CCCC[N+]1(C)CCCC1 [1-Butyl-1-methylpyrrolidinium chloride]
collision cross section in nitrogen (ion source: APCI, ion mode: Positive, ion type: [M]+ (permanent cation)): 131.2 Å² | collision cross section in nitrogen (ion source: ESI, ion mode: Positive, ion type: [M]+ (permanent cation)): 132.4 Å²

Oc1ccc2ccccc2c1 [2-Naphthalenol]
collision cross section in nitrogen [4]: 128.7 Å²

CCCCCCCCCCCCc1ccc(S(=O)(=O)O)cc1 [Dodecylbenzenesulfonic acid]
collision cross section in nitrogen [3]: 167.4 Å² | collision cross section in nitrogen [4]: 184.8 Å²

Oc1cc(Cl)ccc1Cl [2,5-Dichlorophenol]
collision cross section in nitrogen [4]: 123.3 Å²

CCN(CC)c1c([N+](=O)[O-])cc(C(F)(F)F)c(N)c1[N+](=O)[O-] [Dinitramine]
collision cross section in nitrogen [4]: 159.7 Å²

COc1cc(-c2nc(NC(=O)c3cc4cc(C)cc(C)c4n3CC(=O)O)sc2CCC2CCCCC2)c(OC)cc1Cl
collision cross section in nitrogen [1]: 258.5 Å² | collision cross section in nitrogen [2]: 258.2 Å² | collision cross section in nitrogen [3]: 259.5 Å² | collision cross section in nitrogen [4]: 258.7 Å²

CC(=O)CC(=O)Nc1ccccc1C [N-(2-Methylphenyl)-3-oxobutanamide]
collision cross section in nitrogen [3]: 154.9 Å² | collision cross section in nitrogen [4]: 142.5 Å²

CC(=O)CC(c1ccccc1)c1c(O)c2ccccc2oc1=O (centres undefined) [Warfarin]
collision cross section in nitrogen [1]: 167.4 Å² | collision cross section in nitrogen [2]: 166.9 Å² | collision cross section in nitrogen [3]: 179.1 Å² | collision cross section in nitrogen [4]: 172.2 Å²

CCCC1C(CC)=CC(CC)=CN1c1ccccc1 (centres undefined) [3,5-Diethyl-1-phenyl-2-propyl-1,2-dihydropyridine]
collision cross section in nitrogen [1]: 163.4 Å²

Nc1ccc2cc3ccc(N)cc3nc2c1 [Proflavin hydrochloride]
collision cross section in nitrogen [1]: 143.4 Å² | collision cross section in nitrogen [2]: 143.9 Å²

CCCCCCCCOC(=O)c1ccc(O)cc1 [Octylparaben]
collision cross section in nitrogen [4]: 169.1 Å²

CNC(=O)Oc1ccccc1C1OCCO1 [Dioxacarb]
collision cross section in nitrogen [3]: 151.9 Å²

COc1ccc(-c2ccccc2)cc1NNC(=O)OC(C)C [Bifenazate]
collision cross section in nitrogen [3]: 185.7 Å²

CC(=O)Nc1ccc(CC(=O)O)cc1 [Actarit]
collision cross section in nitrogen [2]: 143.7 Å² | collision cross section in nitrogen [3]: 143.5 Å²

CCCCCCCCOC(=O)/C=C\C(=O)OCCCCCCCC [2-Butenedioic acid (2Z)-, dioctyl ester]
collision cross section in nitrogen [3]: 206.4 Å²

O=S(=O)(O)C(F)(F)C(F)(F)C(F)(F)C(F)(F)C(F)(F)C(F)(F)F [Potassium perfluorohexanesulfonate]
collision cross section in nitrogen [4]: 150.9 Å²

C1CC(COCC2CO2)CCC1COCC1CO1 (centres undefined)
collision cross section in nitrogen [3]: 160.1 Å²

C=CCOC(=O)c1ccc(C(=O)OCC=C)c(C(=O)OCC=C)c1 [Triallyl trimellitate]
collision cross section in nitrogen [3]: 189.3 Å²

COC(=O)c1ccc(I)cc1S(=O)(=O)NC(=O)Nc1nc(C)nc(OC)n1 [Iodosulfuron methyl ester sodium salt]
collision cross section in nitrogen [1]: 194.5 Å² | collision cross section in nitrogen [2]: 194.2 Å² | collision cross section in nitrogen [3]: 195.8 Å² | collision cross section in nitrogen [4]: 196.1 Å²

Cc1ccccc1OP(=O)(Oc1ccccc1C)Oc1ccccc1C [Tri-o-cresyl phosphate]
collision cross section in nitrogen [1]: 182.7 Å² | collision cross section in nitrogen [2]: 182.3 Å² | collision cross section in nitrogen [3]: 192.7 Å²

CC[C@@H]1C[C@H](N(Cc2cc(C(F)(F)F)cc(C(F)(F)F)c2)C(C)=O)c2cc(C(F)(F)F)ccc2N1C(=O)OC(C)C
collision cross section in nitrogen [3]: 233.5 Å² | collision cross section in nitrogen [4]: 231.1 Å²

OCc1ncccc1O [3-Hydroxy-2-(hydroxymethyl)pyridine hydrochloride]
collision cross section in nitrogen [1]: 121.7 Å² | collision cross section in nitrogen [2]: 122.1 Å² | collision cross section in nitrogen [4]: 119.9 Å²

S=c1[nH]c2cc(Cl)ccc2s1 [5-Chloro-1,3-benzothiazole-2(3H)-thione]
collision cross section in nitrogen [4]: 133.3 Å²

CC(C)c1ccc(C(=O)N=C(N)N)cc1S(C)(=O)=O [Cariporide mesylate]
collision cross section in nitrogen [1]: 175.1 Å² | collision cross section in nitrogen [2]: 173.6 Å² | collision cross section in nitrogen [3]: 178.2 Å² | collision cross section in nitrogen [4]: 169.3 Å²

O=C(Nc1ccccc1)Nc1ccnc(Cl)c1 [Forchlorfenuron]
collision cross section in nitrogen [1]: 156.5 Å² | collision cross section in nitrogen [2]: 156.9 Å² | collision cross section in nitrogen [4]: 155.2 Å²

CCCCCCCCCCCCCCCCCC(=O)O [Octadecanoic acid]
collision cross section in nitrogen [4]: 177.2 Å²

CC(=O)O[C@]1(C(C)=O)CC[C@H]2[C@@H]3C=C(Cl)C4=CC(=O)[C@@H]5C[C@@H]5[C@]4(C)[C@H]3CC[C@@]21C [Cyproterone acetate]
collision cross section in nitrogen [2]: 201.9 Å² | collision cross section in nitrogen [4]: 201.5 Å²

C=CC(=O)OCC1CC2CC1C1CCC(COC(=O)C=C)C21 (centres undefined) [Tricyclodecanedimethanol diacrylate]
collision cross section in nitrogen [3]: 176.9 Å²

Nc1ccc(N=Nc2ccccc2)cc1 [C.I. Solvent Yellow 1]
collision cross section in nitrogen [1]: 146.1 Å² | collision cross section in nitrogen [2]: 146.9 Å² | collision cross section in nitrogen [4]: 145.4 Å²

CCCCOC(=O)CC(CC(=O)OCCCC)(OC(C)=O)C(=O)OCCCC [Acetyl tributyl citrate]
collision cross section in nitrogen [3]: 207 Å²

Cc1[nH]c(=O)c(C#N)cc1-c1ccncc1 [Milrinone]
collision cross section in nitrogen [1]: 157.1 Å² | collision cross section in nitrogen [2]: 156.3 Å² | collision cross section in nitrogen [4]: 147.4 Å²

Cc1oc2c(NC(=O)c3c(Cl)cccc3Cl)cccc2c1C(C)(C)O
collision cross section in nitrogen [2]: 186.3 Å² | collision cross section in nitrogen [3]: 190.9 Å² | collision cross section in nitrogen [4]: 191.5 Å²

CC1=NN(c2ccccc2)C(=O)C1 [1-Phenyl-3-methyl-5-pyrazolone]
collision cross section in nitrogen [2]: 137.7 Å² | collision cross section in nitrogen [4]: 137.8 Å²

CCN(CCC#N)c1ccccc1 [3-[Ethyl(phenyl)amino]propanenitrile]
collision cross section in nitrogen [1]: 138.5 Å² | collision cross section in nitrogen [2]: 139.3 Å²

CCCCC(CC)COP(=O)(O)OCC(CC)CCCC (centres undefined) [Bis(2-ethylhexyl) phosphate]
collision cross section in nitrogen [3]: 201 Å² | collision cross section in nitrogen [4]: 187 Å²
